Test results taken from ChEMBL document CHEMBL4507289, “Data for DCP probe GSM1” (2021).

How the values were obtained:
[1] = tested on: Phosphatidylinositol 4,5-bisphosphate 3-kinase catalytic subunit alpha isoform (Homo sapiens), P42336 [E545K]; conditions: Compound concentration 1000.0 nM
[2] = biological target: 5-hydroxytryptamine receptor 2B (Homo sapiens) (UniProt P41595); conditions: Compound concentration 10.0 uM
[3] = biological target: Protein kinase C theta type (Homo sapiens) (UniProt Q04759); conditions: Compound concentration 1000.0 nM
[4] = biological target: D(4) dopamine receptor (Homo sapiens) (UniProt P21917); conditions: Compound concentration 10.0 uM
[5] = tested on: Mast/stem cell growth factor receptor Kit (Homo sapiens), P10721 [A829P]; conditions: Compound concentration 1000.0 nM
[6] = biological target: G protein-coupled receptor kinase 3 (Homo sapiens) (UniProt P35626); conditions: Compound concentration 1000.0 nM
Chain of G protein-coupled receptor kinase 3 (Homo sapiens) (P35626 whole entry): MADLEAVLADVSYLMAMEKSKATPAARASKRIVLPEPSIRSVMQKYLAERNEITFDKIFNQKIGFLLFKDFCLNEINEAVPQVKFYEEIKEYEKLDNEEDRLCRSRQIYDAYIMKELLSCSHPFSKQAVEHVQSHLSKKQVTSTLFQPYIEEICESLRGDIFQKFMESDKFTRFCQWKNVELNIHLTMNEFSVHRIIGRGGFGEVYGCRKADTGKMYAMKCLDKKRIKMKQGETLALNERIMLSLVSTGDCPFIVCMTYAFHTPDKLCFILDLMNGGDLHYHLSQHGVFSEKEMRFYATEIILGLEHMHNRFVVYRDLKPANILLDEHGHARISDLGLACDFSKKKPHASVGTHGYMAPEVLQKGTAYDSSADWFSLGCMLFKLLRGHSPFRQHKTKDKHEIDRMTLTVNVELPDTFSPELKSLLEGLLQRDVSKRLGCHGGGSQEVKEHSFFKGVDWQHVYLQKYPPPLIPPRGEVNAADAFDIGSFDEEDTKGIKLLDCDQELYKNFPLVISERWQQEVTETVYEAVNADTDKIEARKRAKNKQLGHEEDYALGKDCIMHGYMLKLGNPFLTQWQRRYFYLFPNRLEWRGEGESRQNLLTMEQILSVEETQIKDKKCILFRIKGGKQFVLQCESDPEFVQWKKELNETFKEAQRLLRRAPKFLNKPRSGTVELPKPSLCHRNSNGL

[7] = biological target: Protein kinase C delta type (Homo sapiens) (UniProt Q05655); conditions: Compound concentration 1000.0 nM
[8] = biological target: Serine/threonine-protein kinase 17B (Homo sapiens) (UniProt O94768); conditions: Compound concentration 1000.0 nM
[9] = biological target: Mitogen-activated protein kinase 13 (Homo sapiens) (UniProt O15264); conditions: Compound concentration 1000.0 nM
Chain of Mitogen-activated protein kinase 13 (Homo sapiens) (O15264 whole entry): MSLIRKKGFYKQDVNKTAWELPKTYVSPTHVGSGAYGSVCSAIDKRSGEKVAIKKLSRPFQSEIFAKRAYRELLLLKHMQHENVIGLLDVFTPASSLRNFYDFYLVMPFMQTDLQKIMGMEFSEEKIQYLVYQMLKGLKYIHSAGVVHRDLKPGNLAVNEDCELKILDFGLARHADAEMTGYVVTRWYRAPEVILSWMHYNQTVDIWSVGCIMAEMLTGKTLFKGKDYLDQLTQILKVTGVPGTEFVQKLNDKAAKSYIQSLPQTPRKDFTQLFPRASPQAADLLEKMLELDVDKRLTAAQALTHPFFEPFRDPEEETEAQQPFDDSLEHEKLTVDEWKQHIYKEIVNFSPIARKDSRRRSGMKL

[10] = biological target: Tyrosine-protein kinase BTK (Homo sapiens) (UniProt Q06187); conditions: Compound concentration 1000.0 nM
[11] = biological target: Histamine H1 receptor (Homo sapiens) (UniProt P35367); conditions: Compound concentration 10.0 uM
[12] = biological target: Tyrosine-protein kinase JAK1 (Homo sapiens) (UniProt P23458); conditions: Compound concentration 1000.0 nM
[13] = biological target: Activin receptor type-1 (Homo sapiens) (UniProt Q04771); conditions: Compound concentration 1000.0 nM
[14] = biological target: Serine/threonine-protein kinase N1 (Homo sapiens) (UniProt Q16512); conditions: Compound concentration 1000.0 nM
Chain of Serine/threonine-protein kinase N1 (Homo sapiens) (Q16512 2-942 limits assumed): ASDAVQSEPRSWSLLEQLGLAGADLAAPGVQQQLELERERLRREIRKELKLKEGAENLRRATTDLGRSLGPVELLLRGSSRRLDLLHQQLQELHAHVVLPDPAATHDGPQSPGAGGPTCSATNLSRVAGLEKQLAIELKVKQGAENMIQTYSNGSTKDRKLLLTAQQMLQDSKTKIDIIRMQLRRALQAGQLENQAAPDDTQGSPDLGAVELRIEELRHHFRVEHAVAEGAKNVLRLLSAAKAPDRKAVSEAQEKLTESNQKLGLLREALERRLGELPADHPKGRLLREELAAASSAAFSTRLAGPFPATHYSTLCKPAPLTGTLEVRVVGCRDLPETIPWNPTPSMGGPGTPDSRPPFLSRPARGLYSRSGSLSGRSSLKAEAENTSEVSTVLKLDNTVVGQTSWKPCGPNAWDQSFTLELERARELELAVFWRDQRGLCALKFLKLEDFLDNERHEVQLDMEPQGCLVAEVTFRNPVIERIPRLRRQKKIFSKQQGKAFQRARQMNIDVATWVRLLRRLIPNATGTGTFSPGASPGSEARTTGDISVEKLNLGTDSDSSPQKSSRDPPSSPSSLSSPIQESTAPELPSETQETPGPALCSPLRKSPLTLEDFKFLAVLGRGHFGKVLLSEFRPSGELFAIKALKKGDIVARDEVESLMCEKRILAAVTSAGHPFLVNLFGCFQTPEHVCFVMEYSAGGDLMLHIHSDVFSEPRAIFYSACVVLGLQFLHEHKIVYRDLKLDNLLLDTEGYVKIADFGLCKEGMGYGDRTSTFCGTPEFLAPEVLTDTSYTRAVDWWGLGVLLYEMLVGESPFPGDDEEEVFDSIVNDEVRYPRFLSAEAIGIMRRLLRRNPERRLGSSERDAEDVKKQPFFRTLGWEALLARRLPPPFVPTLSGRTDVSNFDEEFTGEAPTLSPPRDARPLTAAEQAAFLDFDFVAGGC

[15] = biological target: Inhibitor of nuclear factor kappa-B kinase subunit beta (Homo sapiens) (UniProt O14920); conditions: Compound concentration 1000.0 nM
[16] = tested on: Proto-oncogene tyrosine-protein kinase receptor Ret (Homo sapiens), P07949 [M918T]; conditions: Compound concentration 1000.0 nM
[17] = biological target: Phosphatidylinositol 3-kinase C2 domain-containing subunit gamma (Homo sapiens) (UniProt O75747); conditions: Compound concentration 1000.0 nM
[18] = biological target: Serine/threonine-protein kinase ULK1 (Homo sapiens) (UniProt O75385); conditions: Compound concentration 1000.0 nM
Chain of Serine/threonine-protein kinase ULK1 (Homo sapiens) (O75385 whole entry): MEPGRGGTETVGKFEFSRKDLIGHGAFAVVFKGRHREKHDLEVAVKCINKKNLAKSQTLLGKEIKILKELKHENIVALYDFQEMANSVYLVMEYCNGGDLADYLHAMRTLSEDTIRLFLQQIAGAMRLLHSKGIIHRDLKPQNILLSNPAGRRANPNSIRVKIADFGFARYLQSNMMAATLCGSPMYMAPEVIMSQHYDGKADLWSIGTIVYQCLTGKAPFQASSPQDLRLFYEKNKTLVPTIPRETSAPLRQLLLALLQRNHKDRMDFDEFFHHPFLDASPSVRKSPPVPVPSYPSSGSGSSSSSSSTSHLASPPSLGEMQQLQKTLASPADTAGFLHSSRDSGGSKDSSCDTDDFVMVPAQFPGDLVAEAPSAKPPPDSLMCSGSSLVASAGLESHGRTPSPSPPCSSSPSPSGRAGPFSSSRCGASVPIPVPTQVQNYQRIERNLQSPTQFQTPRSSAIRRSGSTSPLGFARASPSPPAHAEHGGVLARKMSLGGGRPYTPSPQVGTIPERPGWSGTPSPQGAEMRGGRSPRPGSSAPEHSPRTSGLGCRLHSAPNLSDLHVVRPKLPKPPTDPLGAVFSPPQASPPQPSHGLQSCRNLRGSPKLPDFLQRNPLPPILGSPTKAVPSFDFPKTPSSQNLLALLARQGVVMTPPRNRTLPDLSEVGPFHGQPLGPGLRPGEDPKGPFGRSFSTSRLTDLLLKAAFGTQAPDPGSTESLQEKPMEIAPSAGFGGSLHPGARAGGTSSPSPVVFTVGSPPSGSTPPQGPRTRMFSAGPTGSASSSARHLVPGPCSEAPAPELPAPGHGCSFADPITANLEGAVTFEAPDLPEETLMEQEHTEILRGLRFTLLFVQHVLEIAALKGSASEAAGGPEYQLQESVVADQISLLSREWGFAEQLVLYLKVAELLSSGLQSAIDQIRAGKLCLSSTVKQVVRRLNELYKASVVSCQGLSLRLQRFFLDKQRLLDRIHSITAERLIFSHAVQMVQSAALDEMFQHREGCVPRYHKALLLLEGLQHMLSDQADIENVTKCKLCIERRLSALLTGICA

[19] = biological target: NT-3 growth factor receptor (Homo sapiens) (UniProt Q16288); conditions: Compound concentration 1000.0 nM
[20] = biological target: Hormonally up-regulated neu tumor-associated kinase (Homo sapiens) (UniProt P57058); conditions: Compound concentration 1000.0 nM
[21] = biological target: Dual specificity protein kinase CLK4 (Homo sapiens) (UniProt Q9HAZ1); conditions: Compound concentration 1000.0 nM
[22] = tested on: Mast/stem cell growth factor receptor Kit (Homo sapiens), P10721 [V559D,T670I]; conditions: Compound concentration 1000.0 nM
[23] = biological target: Cyclin-dependent kinase 14 (Homo sapiens) (UniProt O94921); conditions: Compound concentration 1000.0 nM
[24] = biological target: Tyrosine-protein kinase JAK2 (Homo sapiens) (UniProt O60674); conditions: Compound concentration 1000.0 nM
[25] = biological target: Muscarinic acetylcholine receptor M5 (Homo sapiens) (UniProt P08912); conditions: Compound concentration 10.0 uM
[26] = biological target: Bone morphogenetic protein receptor type-1A (Homo sapiens) (UniProt P36894); conditions: Compound concentration 1000.0 nM
[27] = biological target: Ribosomal protein S6 kinase alpha-6 (Homo sapiens) (UniProt Q9UK32); conditions: Compound concentration 1000.0 nM
Chain of Ribosomal protein S6 kinase alpha-6 (Homo sapiens) (Q9UK32 whole entry): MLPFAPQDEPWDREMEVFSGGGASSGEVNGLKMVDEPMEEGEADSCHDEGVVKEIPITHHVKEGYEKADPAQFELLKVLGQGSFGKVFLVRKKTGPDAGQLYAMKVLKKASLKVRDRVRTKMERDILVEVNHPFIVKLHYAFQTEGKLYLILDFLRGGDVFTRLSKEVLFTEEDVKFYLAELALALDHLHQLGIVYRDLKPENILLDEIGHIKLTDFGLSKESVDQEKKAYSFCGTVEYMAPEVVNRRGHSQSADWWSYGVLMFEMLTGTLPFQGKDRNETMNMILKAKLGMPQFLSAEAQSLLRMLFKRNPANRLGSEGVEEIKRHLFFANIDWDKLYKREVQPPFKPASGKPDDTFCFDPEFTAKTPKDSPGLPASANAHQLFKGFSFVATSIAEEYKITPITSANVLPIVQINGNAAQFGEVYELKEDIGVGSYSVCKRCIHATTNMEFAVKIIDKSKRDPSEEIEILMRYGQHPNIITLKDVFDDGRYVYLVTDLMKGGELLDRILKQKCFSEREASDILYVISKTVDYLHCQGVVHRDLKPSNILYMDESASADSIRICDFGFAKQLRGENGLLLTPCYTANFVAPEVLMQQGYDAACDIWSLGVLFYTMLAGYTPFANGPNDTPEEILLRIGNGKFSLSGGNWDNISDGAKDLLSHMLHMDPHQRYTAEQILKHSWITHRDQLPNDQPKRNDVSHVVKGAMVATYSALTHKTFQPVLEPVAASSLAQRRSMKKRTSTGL

[28] = biological target: D(2) dopamine receptor (Homo sapiens) (UniProt P14416); conditions: Compound concentration 10.0 uM
[29] = biological target: Sigma intracellular receptor 2 (Homo sapiens, UniProt Q5BJF2); experiment: GPCRScan assay: inhibition of Sigma 2; set-up: radioligand conc. used [nm] 5.0, parental cells HEKT
Chain of Sigma intracellular receptor 2 (Q5BJF2 whole entry): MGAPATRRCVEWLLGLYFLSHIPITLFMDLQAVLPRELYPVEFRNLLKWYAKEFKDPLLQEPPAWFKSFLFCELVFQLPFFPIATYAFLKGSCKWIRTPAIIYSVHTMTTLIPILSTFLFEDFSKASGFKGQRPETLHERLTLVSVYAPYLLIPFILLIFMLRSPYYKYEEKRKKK

[30] = biological target: MAP/microtubule affinity-regulating kinase 4 (Homo sapiens) (UniProt Q96L34); conditions: Compound concentration 1000.0 nM
[31] = tested on: Phosphatidylinositol 4,5-bisphosphate 3-kinase catalytic subunit alpha isoform (Homo sapiens), P42336 [H1047L]; conditions: Compound concentration 1000.0 nM
[32] = biological target: Myosin light chain kinase family member 4 (Homo sapiens) (UniProt Q86YV6); conditions: Compound concentration 1000.0 nM
[33] = biological target: Myotonin-protein kinase (Homo sapiens) (UniProt Q09013); conditions: Compound concentration 1000.0 nM
[34] = tested on: Epidermal growth factor receptor (Homo sapiens), P00533 [L861Q]; conditions: Compound concentration 1000.0 nM
[35] = biological target: Serine/threonine-protein kinase/endoribonuclease IRE1 (Homo sapiens) (UniProt O75460); conditions: Compound concentration 1000.0 nM
[36] = biological target: Serine/threonine-protein kinase 24 (Homo sapiens) (UniProt Q9Y6E0); conditions: Compound concentration 1000.0 nM
[37] = biological target: D(1A) dopamine receptor (Homo sapiens) (UniProt P21728); conditions: Compound concentration 10.0 uM
[38] = biological target: Serine/threonine-protein kinase tousled-like 1 (Homo sapiens) (UniProt Q9UKI8); conditions: Compound concentration 1000.0 nM
[39] = biological target: Serine/threonine-protein kinase DCLK2 (Homo sapiens) (UniProt Q8N568); conditions: Compound concentration 1000.0 nM
[40] = biological target: Mitogen-activated protein kinase kinase kinase 3 (Homo sapiens) (UniProt Q99759); conditions: Compound concentration 1000.0 nM
[41] = tested on: Tyrosine-protein kinase ABL1 (Homo sapiens), P00519 [Q252H]; conditions: Compound concentration 1000.0 nM
[42] = biological target: Serine/threonine-protein kinase RIO1 (Homo sapiens) (UniProt Q9BRS2); conditions: Compound concentration 1000.0 nM
[43] = biological target: Serine/threonine-protein kinase Sgk3 (Homo sapiens) (UniProt Q96BR1); conditions: Compound concentration 1000.0 nM
[44] = biological target: Mitogen-activated protein kinase kinase kinase 4 (Homo sapiens) (UniProt Q9Y6R4); conditions: Compound concentration 1000.0 nM
[45] = biological target: Tyrosine-protein kinase receptor Tie-1 (Homo sapiens) (UniProt P35590); conditions: Compound concentration 1000.0 nM

Chain of Phosphatidylinositol 4,5-bisphosphate 3-kinase catalytic subunit alpha isoform (Homo sapiens), P42336 [E545K] (P42336 whole entry E545K, canonical isoform): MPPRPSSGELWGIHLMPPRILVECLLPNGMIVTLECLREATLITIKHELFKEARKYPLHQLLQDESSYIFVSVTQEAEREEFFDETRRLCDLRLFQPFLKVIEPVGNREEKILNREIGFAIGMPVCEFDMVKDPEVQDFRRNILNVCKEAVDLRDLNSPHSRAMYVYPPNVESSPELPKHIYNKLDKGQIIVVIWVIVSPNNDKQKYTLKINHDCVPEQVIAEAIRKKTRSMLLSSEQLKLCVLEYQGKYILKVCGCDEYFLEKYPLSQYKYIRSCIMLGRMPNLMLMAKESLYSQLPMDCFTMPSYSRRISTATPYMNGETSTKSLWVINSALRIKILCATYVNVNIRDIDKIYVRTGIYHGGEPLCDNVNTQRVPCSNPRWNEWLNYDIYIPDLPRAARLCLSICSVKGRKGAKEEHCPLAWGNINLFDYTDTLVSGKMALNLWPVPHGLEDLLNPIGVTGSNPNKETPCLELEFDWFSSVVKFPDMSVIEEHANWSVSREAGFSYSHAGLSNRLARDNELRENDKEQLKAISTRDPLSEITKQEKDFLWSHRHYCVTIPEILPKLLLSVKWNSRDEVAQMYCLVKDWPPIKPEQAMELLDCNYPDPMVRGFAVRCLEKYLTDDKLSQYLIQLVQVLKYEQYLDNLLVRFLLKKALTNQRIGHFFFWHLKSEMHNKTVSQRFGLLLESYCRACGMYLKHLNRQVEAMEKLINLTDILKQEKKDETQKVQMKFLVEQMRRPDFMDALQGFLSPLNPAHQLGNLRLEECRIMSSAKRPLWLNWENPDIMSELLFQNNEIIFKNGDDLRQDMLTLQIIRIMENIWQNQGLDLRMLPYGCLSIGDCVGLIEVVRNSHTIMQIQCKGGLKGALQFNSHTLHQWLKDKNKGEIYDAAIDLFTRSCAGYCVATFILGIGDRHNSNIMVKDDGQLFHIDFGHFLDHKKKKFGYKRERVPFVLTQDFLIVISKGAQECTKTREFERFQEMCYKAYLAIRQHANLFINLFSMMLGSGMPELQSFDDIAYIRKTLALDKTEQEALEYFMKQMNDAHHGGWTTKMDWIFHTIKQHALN

COc1cc(-c2cn([C@H]3CCc4c(F)cccc4N(CC(F)(F)F)C3=O)nn2)ccc1-n1cnc(C)c1
residual activity [1]: 70%
inhibition [2]: 5.58%
residual activity [3]: 89%
inhibition [4]: -7.76%
residual activity [5]: 92%
residual activity [6]: 100%
residual activity [7]: 100%
residual activity [8]: 99%
residual activity [9]: 100%
residual activity [10]: 100%
inhibition [11]: 7.55%
residual activity [12]: 100%
residual activity [13]: 100%
residual activity [14]: 96%
residual activity [15]: 100%
residual activity [16]: 100%
residual activity [17]: 72%
residual activity [18]: 100%
residual activity [19]: 95%
residual activity [20]: 100%
residual activity [21]: 100%
residual activity [22]: 94%
residual activity [23]: 100%
residual activity [24]: 100%
inhibition [25]: 26.1%
residual activity [26]: 100%
residual activity [27]: 100%
inhibition [28]: 31.2%
Ki ([29]; read-out: Ki): 890 nM
residual activity [30]: 100%
residual activity [31]: 96%
residual activity [32]: 100%
residual activity [33]: 99%
residual activity [34]: 100%
residual activity [35]: 100%
residual activity [36]: 100%
inhibition [37]: 5.87%
residual activity [38]: 100%
residual activity [39]: 100%
residual activity [40]: 100%
residual activity [41]: 95%
residual activity [42]: 96%
residual activity [43]: 100%
residual activity [44]: 94%
residual activity [45]: 100%

COc1cc(-c2cn([C@H]3CCc4ccccc4N(CC(F)(F)F)C3=O)nn2)ccc1-n1ccc(C)n1
residual activity [1]: 84%
inhibition [2]: 6.39%
residual activity [3]: 94%
inhibition [4]: 52.4%
residual activity [5]: 68%
residual activity [6]: 100%
residual activity [7]: 98%
residual activity [8]: 100%
residual activity [9]: 88%
residual activity [10]: 82%
inhibition [11]: 9.72%
residual activity [12]: 80%
residual activity [13]: 100%
residual activity [14]: 100%
residual activity [15]: 99%
residual activity [16]: 100%
residual activity [17]: 65%
residual activity [18]: 76%
residual activity [19]: 98%
residual activity [20]: 100%
residual activity [21]: 80%
residual activity [22]: 92%
residual activity [23]: 100%
residual activity [24]: 34%
inhibition [25]: 0.39%
residual activity [26]: 89%
residual activity [27]: 91%
inhibition [28]: 7.85%
Ki ([29]; read-out: Ki): 835 nM
Ki ([29]; read-out: pKi (converted)): 741 nM
residual activity [30]: 100%
residual activity [31]: 97%
residual activity [32]: 100%
residual activity [33]: 96%
residual activity [34]: 100%
residual activity [35]: 86%
residual activity [36]: 97%
inhibition [37]: 3.62%
residual activity [38]: 84%
residual activity [39]: 92%
residual activity [40]: 88%
residual activity [41]: 90%
residual activity [42]: 100%
residual activity [43]: 84%
residual activity [44]: 85%
residual activity [45]: 100%
